Values of other authors in patent publication US11904002B2, “Construction and methods of use of a therapeutic cancer vaccine library comprising fusion-specific vaccines” (BostonGene Corporation, priority 2016, dated 2024).

Tested on: CD8+ T-cells
Conditions: CD8+ T-cells generated as a consequence of anti-PD1 treatment; murine MHC H-2Kb

Sequence	recognition by CD8+ T-cells
ITYTWTRL	targets of CD8+ T-cells
VGFNFRTL	targets of CD8+ T-cells
